Reference: patent US20130178469A1, “NOVEL ANTIVIRAL AGENTS” (SHANGHAI INSTITUTE OF ORGANIC CHEMISTRY (SIOC), priority 2010, published 2013)
Where two headings read alike, the source gives them in different places.

Legend:
HIV = test: Inhibition of HIV Replication (NL4-3), extracellular p24 in HuT-78 cells; assay type: cell-based
Description: HuT-78 cells are seeded into 96 well microtitre plates at 50,000 cells per […] per well in RF-10 containing 2 μg/mL polybrene (RF-10/2). Compounds are prepared to 4× final concentration in RF-10/2, and […] added to cells. Virus (40 μL in RF-10/2 containing 1600 pfu) is added to each well or […] RF-10/2 for negative controls and for assaying compound cytotoxicity. After 24 hrs, an additional 90 μL of media or media containing 1× compound is added to each well. At 4 days post infection, 100 μL of media is removed from each well and replaced with 100 μl of fresh media with or without compound. Forty eight hours later supernatants are harvested and levels of extracellular p24 determined. Supernatants are diluted 1 in 10,000 and p24 levels assayed using the Vironostika p24 assay kit. EC50 is calculated as the concentration required to inhibit HIV p24 production to 50% that of no drug controls.
In the tables below, this assay type is referred to as NL4-3.

HIV-1 = test: Luciferase Assay with single-round reporter virus (NLXLuc or HIV-Luc); assay type: cell-based
Description: Infectivity assays using reporter viruses derived from lentiviral vectors capable of a single round of infection were used to determine the activity (EC50) of compounds. The DNA used to generate viruses for infection was the full-length HIV-1 genome which had been envelope-deleted. In addition, a reporter gene (the firefly luciferase gene from Photinus pyralis) was cloned into the nefregion of the HIV backbone for ease of assay readout. […]. Culture supernatants containing VSV-G pseudotyped virions were harvested 64 h post transfection, clarified by centrifugation to remove cell debris, and frozen at −70° C. until use.
293FT cells were plated out at 12000 cells per well in CellView 96-well cell culture plates (Invitrogen) 16 h prior to compound addition. Compounds were preincubated with cells for 4 h at 37° C. prior to the addition of virus sufficient to generate approximately 10000 Luciferase light units (as measured by the Victor Wallace luminometer) upon assaying using the Bright-Glo™ reagent (Promega) according to the manufacturer's instructions at 48 h post infection.
In the tables below, this assay is referred to as NLXLuc or HIV-Luc.

[1] = Human immunodeficiency virus 1, NL43, HuT78

CC(=O)Nc1cc(N2CCOCC2)cn2c(=O)c(O)c(C(=O)NCc3ccc(F)cc3)nc12 [Example 26.5, 9-acetamido-N-(4-fluorobenzyl)-3-hydroxy-7-morpholino-4-oxo-4H-pyrido[1,2-a]pyrimidine-2-carboxamide]
EC50 (HIV; [1]): 0.02 to 0.1 µM

CC(=O)N(C)c1cc(N2CCOCC2)cn2c(=O)c(O)c(C(=O)NCc3ccc(F)cc3)nc12 [Example 28.3, N-(4-fluorobenzyl)-3-hydroxy-9-(N-methylacetamido)-7-morpholino-4-oxo-4H-pyrido[1,2-a]pyrimidine-2-carboxamide]
EC50 (HIV-1; Human immunodeficiency virus 1): 0.02 to 0.1 µM | EC50 (HIV; [1]): 0.001 to 0.01 µM

Cc1ccc2nc(C(=O)NCc3ccc(F)cc3)c(O)c(=O)n2c1 [drawing 183, reference compound]
EC50 (HIV; [1]): 0.1 to 1 µM

O=C(NCc1ccc(Cl)c(Cl)c1)c1nc2c(N3CCCS3(=O)=O)cc(N3CCOCC3)cn2c(=O)c1O [Example 25, N-(3,4-dichlorobenzyl)-9-(1,3-propanesultam)-3-hydroxy-7-morpholino-4-oxo-4H-pyrido[1,2-a]pyrimidine-2-carboxamide]
EC50 (HIV-1; Human immunodeficiency virus 1, HEK-293T): < 0.001 µM | EC50 (HIV; [1]): < 0.001 µM

CCOC(=O)NC1=CC(N2CCOCC2)=CN2C(=O)C(O)C(C(=O)NCc3ccc(F)cc3)=NC12 (stereo not shown) [Example 23.4, ethyl 2-(4-fluorobenzylcarbamoyl)-3-hydroxy-7-morpholino-4-oxo-4,9a-dihydro-3H-pyrido[1,2-a]pyrimidin-9-yl carbamate]
EC50 (HIV): 0.001 to 0.01 µM

O=C(NCc1ccc(F)cc1)c1nc2ccc(Br)cn2c(=O)c1O [reference compound]
EC50 (HIV; [1]): 0.1 to 1 µM

O=C(NCc1ccc(Cl)c(Cl)c1)c1nc2c(N3CCOCC3)cc(N3CCOCC3)cn2c(=O)c1O [Example 22, N-(3,4-dichlorobenzyl)-3-hydroxy-7,9-dimorpholino-4-oxo-4H-pyrido[1,2-a]pyrimidine-2-carboxamide]
EC50 (HIV; [1]): 0.001 to 0.01 µM

Cc1ccc2nc(C(=O)NCc3ccc(Cl)c(Cl)c3)c(O)c(=O)n2c1 [drawing 189, reference compound]
EC50 (HIV; [1]): 0.1 to 1 µM

CN1CCN(c2cc(N(C)S(C)(=O)=O)c3nc(C(=O)NCc4ccc(F)cc4)c(O)c(=O)n3c2)CC1 [Example 5.4, 3-Hydroxy-9-(methanesulfonyl-methyl-amino)-7-(4-methyl-piperazin-1-yl)-4-oxo-4H-pyrido[1,2-a]pyrimidine-2-carboxylic acid 4-fluoro-benzylamide]
EC50 (HIV-1; Human immunodeficiency virus 1): 0.01 to 0.02 µM

CN1CCN(c2cc(N3CCOCC3)cn3c(=O)c(O)c(C(=O)NCc4ccc(F)cc4)nc23)C1=O [Example 29.2, N-(4-fluorobenzyl)-3-hydroxy-9-(3-methyl-2-oxoimidazolidin-1-yl)-7-morpholino-4-oxo-4H-pyrido[1,2-a]pyrimidine-2-carboxamide]
EC50 (HIV-1; Human immunodeficiency virus 1): 0.02 to 0.1 µM

CN1CCN(c2cc(N3CCOCC3)cn3c(=O)c(O)c(C(=O)NCc4ccc(Cl)c(Cl)c4)nc23)C1=O [Example 30, N-(3,4-dichlorobenzyl)-3-hydroxy-9-(3-methyl-2-oxoimidazolidin-1-yl)-7-morpholino-4-oxo-4H-pyrido[1,2-a]pyrimidine-2-carboxamide]
EC50 (HIV-1; Human immunodeficiency virus 1): 0.02 to 0.1 µM

O=C(NCc1ccc(F)cc1)c1nc2c(N3CCCS3(=O)=O)cc(N3CCOCC3)cn2c(=O)c1O [Example 24.4, N-(4-fluorobenzyl)-9-(1,3-propanesultam)-3-hydroxy-7-morpholino-4-oxo-4H-pyrido[1,2-a]pyrimidine-2-carboxamide]
EC50 (HIV-1; Human immunodeficiency virus 1): 0.01 to 0.02 µM | EC50 (HIV; [1]): < 0.001 µM

CC(C)N1CCN(c2cc(N(C)S(C)(=O)=O)c3nc(C(=O)NCc4ccc(F)cc4)c(O)c(=O)n3c2)CC1 [Example 6.3, Trifluoro-acetate4-[2-(4-fluoro-benzylcarbamoyl)-3-hydroxy-9-(methanesulfonyl-methyl-amino)-4-oxo-4H-pyrido[1,2-a]pyrimidin-7-yl]-1-isopropyl-piperazin-1-ium]
EC50 (HIV-1; Human immunodeficiency virus 1): 0.01 to 0.02 µM
